{
  "source": "patent US10113114B2",
  "about": "“Apparatus and method for coating particulate material” (BASF Corporation, priority 2013, dated 2018)",
  "system": "red imported fire ant (Solenopsis invicta) workers",
  "details": "all rates tested (0.5 to 3 X label rate)",
  "excerpt": "Testing with red imported fire ant (Solenopsis invicta, RIFA), Argentine ant (Linepthema humile), and odorous house ant (OHA) workers. Ten inch plastic arenas (inside walls coated with Fluon® to prevent escape) were provided a layer of moistened play sand. A band of mulch was placed across the arena near one side. Between the closest side and the mulch, a micro-centrifuge tube with a universal ant diet was placed. In the larger open area of the arena was placed a water vial and a small weigh boat with either corn grit+soybean oil (RIFA) or 20% honey water (Argentine ant and OHA). Approximately 100 ants were placed in each arena. Mortality was evaluated at 6 or 7 days.",
  "data": [
    {"smiles": "CN/C(=N/CC1CCOC1)N[N+](=O)[O-]", "note": "(stereo not shown) [dinotefuran]", "values": [
      {"measurement": "efficacy of the insecticide on mulch (in words)", "result": "effective at all rates tested"}
    ]}
  ]
}
